≈ marks a conversion by molar mass, not a printed value.
Assays:
coagulation = test: Anti-coagulant activity after oral and intravenous administration; type: in vivo; conditions: protamine sulfate intravenous
Method: One of the considerations in the administering the composition, particularly when the drug is administered parenterally or orally, is systemic side effects. Studies conducted in support of the present invention indicate that the calix(n)arene compound, particularly the sulfonic acid compound, may show anti-coagulant activity after oral and intravenous administration. […] The protamine administration is timed to correspond to highest blood levels of the calix(n)arene compounds. In a typical method, a dose of protamine equivalent to about 1 mg per 100 heparin anticoagulant units is administered intravenously simultaneously with IV administration of the calix(n)arene, or 1-2 hours after oral administration of the macrocyclic drug. It is generally recommended that protamine be infused slowly (i.e., not more than a total of 50 mg/10 minutes).

HSV-1 [1] = test: Plaque reduction assay, HSV-1, Vero cells; type: cell-based, HSV-1 (Kos-1)
Method: (§1) used in Table 3 were further tested for activity against HSV infection in
(§2) a plaque reduction assay, as detailed in Example 6. Here Vero cells, after
(§3) overnight incubation, were exposed to serial dilutions of KY compound,
(§4) from 0.625-10 μg/ml, and HSV-1 or HSV-2 virus for two hours. After
(§5) washing to remove drug and extracellular virus, the cells were further
(§6) incubated for 2 days, then stained and counted for plaque formation.
(§7) Percent inhibition was determined by dividing plaques produced by total
(§8) number of plaques in infected, untreated controls. From the concentration
(§9) effect curve of plaque inhibition (expressed as percent of control), the
(§10) concentration of compound required to produce 50% plaque reduction,
(§11) IC50, was determined. The IC50 values for infection by HSV-1 and
(§12) HSV-2 infection is given in the right-hand columns in Table 3. With

HSV-2 [2] = test: Plaque reduction assay, HSV-2, Vero cells; type: cell-based, HSV-2 (333); conditions: Human alphaherpesvirus 2, Vero
Method: as §1, §2, §3, §4, §5, §6, §7, §8, §9, §10, §11, §12

HSV-1 [3] = test: HSV-1 viral yield inhibition by combined drug exposure; type: cell-based; conditions: HSV-1, FIG. 34A
From the text: With either drug alone, a maximum decrease in viral yield was slightly less than three logs (orders of magnitude).
Two days later, the medium was removed.

HSV-1 [4] = test: Topical treatment of ocular HSV-1 infection, rabbits
Method: New Zealand white rabbits were acclimated for a minimum of two days prior to inoculation to allow the animals to accommodate to conditions in the vivarium facility. After the accommodation period, animals received a slit lamp ocular examination to exclude any animals with preexisting anterior segment ocular defects. Animals were bilaterally inoculated topically with an 80 μl drop of Minimal Essential Medium (MEM; Gibco) containing 10^5 pfu/ml McKrae strain HSV-1; eyes were massaged for 30 seconds. Animals were replaced individually in cages.
On day 4 post inoculation (PI), animals were evaluated by slit lamp microscopy. Corneal epithelial, iris, and conjunctival disease were graded on an increasing scale of severity from 0+ to 4+. After evaluation, animals were divided into 4 groups of 5 animals with matched corneal, stromal and conjunctival involvement. Topical therapy was initiated immediately after animal grouping. Therapy groups included:
Group #1: 5 rabbits, Y-1 topical therapy (6.25 μg/50 μl) 5×/dayfor 4 days;
Group #2: 5 rabbits, Y-1 topical therapy (12.5 μg/50 μl) 5×/dayfor 4 days;
Group #3: 5 rabbits, Y-1 topical therapy (18.75 μg/50 μl) 5×/day for 4 days;
Group #4: 5 rabbits, placebo therapy (sterile water) 5×/day for 5 days.
All Y-1 doses were formulated to contain these concentrations in a volume of 50 μl (a standard eye drop).
Topical therapy with 0-19 μg Y-1 in 50 μl was initiated on day 4 post-inoculation (PI) and continued to day 7 PI. All animals received daily ocular slit lamp evaluations from day 3 through day 7 PI. The ocular HSV-1 induced disease severity was recorded daily.
Eyes of all animals were additionally sampled for the presence of infectious HSV-1 on days 0 (pre-inoculation), 3, 5, and 7 PI. Briefly, tear film was obtained by swabbing the lower and upper conjunctival sacs and retaining the swab in the nasal fornix for 10 seconds. The swabs were eluted individually in Hank's Buffered Saline (HBSS, Gibco Laboratories). Fifty microliter aliquots of the virus-HBSS eluate was adsorbed onto confluent HFF cell monolayers for 5 minutes. Monolayers were hydrated with Minimal Essential Medium (MEM; Gibco Laboratories), incubated at 37° C. and observed daily for two weeks to detect cytopathology consistent with HSV infection (HSV CPE).
On day 7 PI (sacrifice), the corneal epithelium was scraped from the eyes and HSV was recovered on HFF cell monolayers. Corneal epithelial co-cultures were evaluated daily by inverted light microscopy.

HIV-HXB = test: Inhibition of syncytia formation, HIV-HXB (HTLV-IIIB)
HSV-1 and HSV-2 = test: Viral yield inhibition, HeLa cells, plaque count on Vero cells; conditions: virus yield or CPE assays
Method: The ability of selected naphthalene-subunit compounds to inhibit HSV-1 and HSV-2 viral yields at selected drug concentrations up to 10 μg/ml was assessed in the viral inhibition assay described in Example 7. Briefly, cultured Hela cells were exposed to serially diluted KY compound and virus, allowed to grow for 24 hours, then freeze/thawed 3 times to release virus particles. Vero cells were infected serial dilutions of the viral lysates were assayed for plaque counts as described in Example 6.
1×10^6 HeLa S3 were plated in 25 T flasks in 5 ml RPMI-1640+5% FCS+P/S. 24 hours later, the medium was aspirated and replaced with 6×10^6 PFU HSV-1 or HSV-2, and serial dilutions of selected KY compounds, at 10, 5, 2.5, 1.25, and 0.625 μg/ml drug. After growth at 37° C. for 24 hours in 2 ml of RPMI-1640 containing 2% FCS and P/S, the cells were frozen at -70° C. until the time for titration. The cells were freeze/thawed 3 times to release virus from the cells, and serially diluted 10 fold.
1×10^5 Vero cells were plated in each well of 24 well multi-dish in 1 ml RPMI-1640+5% FCS+P/S+0.1% methylcellulose (15 cps). On the second day, after removal of the medium, the 10 fold serially diluted virus in 100 μl was added in duplicate. […] The plaques formed were counted and the titer was calculated from the fold of dilutions.

HSV-2 [5] = test: Topical treatment of genital HSV-2 infection, guinea pigs, second study
Method: In another study using the guinea pig genital model described above, animals were infected with HSV-2, then treated with KY-1 or Y-1 topically at concentrations of 2% or 5% drug. […] Animals were treated and scored daily for severity of infection for 19 days.
(§13) The MS strain of HSV-2 was utilized for the experimental animal infection. Female Hartley strain guinea pigs (Charles River Breeding Laboratories, Kingston, NY) weighing 250-300 g were inoculated intravaginally with 2.0×10^5 plaque-forming units of HSV-2 one hour after being swabbed for removal of vaginal secretions.
Formulations of KY-1 or Y-1 were prepared by dissolving the compound in a 1.5% methyl cellulose solution such that final concentration of compound was 2% or 5% (wt/wt). Control animals were given either no treatment (N=10 animals) or treatment with placebo (1.5% methylcellulose solution).
(§14) To determine the effect of therapy on the development and spread of external genital lesions, lesion severity was scored on a 0-5+ scale through the primary infection period (19-21 days). Lesion score-day areas and virus titer-day areas under the curve, and peak lesion scores and peak virus titers between untreated and placebo-treated or placebo-treated and drug-treated animals were compared using the Mann-Whitney U range sum test. A p-value of 0.05 or less was considered significant.
Animals were scored daily for 19 days following inoculation for presence of lesions and severity of lesions (on a 0-5+ point scale). Lesion scores were tabulated as area under the curve of daily lesion score vs. time (days) and peak lesion score observed. A known antiviral agent, acyclovir (ACV) was administered in a 5% formulation to 8 animals as a positive control in the study.

HSV-1 KOS = test: Inhibition of viral yield, wild type HSV-1 KOS; conditions: Human alphaherpesvirus 1, HeLa, read-out: ID90
Method: (§15) These compounds tested were the nucleoside analogs acyclovir (ACV), ganciclovir (DHPG), phosphonoformate (PFA), and phosphomethoxyethyladenine (PMEA). Inhibition of viral yield was determined, as above, by infecting Hela cells in the presence of wild type or drug-resistant strains of HSV-1 or HSV-2, and serial dilutions of a selected anti-viral compound, and infecting Vero cells with serial dilutions of the Hela cell lysate, as above.
(§16) The KOS (HSV-1) and 333 (HSV-2) are wild type viruses; the KOS(PMEA)' and KOS(PFA)' are drug-resistant HSV-1 strains having a DNA polymerase mutation. The 333(DHPG) strain is a drug-resistantHSV-2 strain having a thymidine kinase mutation.
(§17) The following strains of HSV-1 and HSV-2 virus were used: KOS, a wild type HSV-1 virus; KOS (PMEA) and KOS (PFA), both drug-resistant HSV-1 viruses having a DNA polymerase mutation; 333, a wild type HSV-2 HSV-2 virus, and 333 (DHPG), a drug-resistant HSV-2 virus having a thymidine kinase mutation.
(§18) After growth at 37° C. for 24 hours in 2 ml of RPMI-1640 containing 2% FCS and penicillin and streptomycin (P/S), the cells were frozen at -70° C. until the time for titration. The cells were freeze/thawed 3 times to release virus from the cells, serially diluted 10 fold, and the serial dilutions were added to Vero cells in culture. After 2 hours incubation at 37° C. the virus was removed and 0.5 ml methycellulose (4K cps) in RPMI-1640 and 2% FCS+P/S was added. Two days later, the medium was removed. The cells were stained in 0.8% crystal violet in 50% ethanol. The plaques formed were counted and the titer was calculated from the fold of dilutions. From the drug dose response, the concentration of each drug required to effect a 90% inhibition of virus yield, the IC90 concentration was determined.

HSV-2 333 = test: Inhibition of viral yield, wild type HSV-2 333; conditions: Human alphaherpesvirus 2, HeLa, read-out: ID90
Method: as §15, §16, §17, §18

HSV-1 KOS (PFA)' = test: Inhibition of viral yield, drug-resistant HSV-1 KOS(PFA)'; conditions: Human alphaherpesvirus 1, HeLa, read-out: ID90
Method: as §15, §16, §17, §18

HSV-1 KOS(PMEA)' = test: Inhibition of viral yield, drug-resistant HSV-1 KOS(PMEA)'; conditions: Human alphaherpesvirus 1, HeLa, read-out: ID90
Method: as §15, §16, §17, §18

HSV-2 333 (DHPG)' = test: Inhibition of viral yield, drug-resistant HSV-2 333(DHPG)'; conditions: Human alphaherpesvirus 2, HeLa, read-out: ID90
Method: as §15, §16, §17, §18

HSV-2 [6] = test: Topical treatment of genital HSV-2 infection, guinea pigs, first study; conditions: 5%
Method: Briefly, female guinea pigs were infected intravaginally with HSV-2, then treated topically three times daily beginning 6 hours or 48 hours after inoculation with HSV-2, as described in Example 13. […] Swabs of vaginal secretion were obtained and assayed for viral activity by a standard CPE assay. The severity of genital lesions was scored on a 0-5+ scale through the period of primary infection (21 days).
as §13
In the first study, groups of 10 guinea pigs were treated topically (0.1 ml intravaginally +0.1 ml on external genital skin) three times daily (approximately every eight hours) for seven days beginning 6 h or 48 h after inoculation with HSV-2.
To determine the effect of treatment on vaginal viral replication, swabs of vaginal secretions were obtained on days 1, 3, 5, 7 and 10 after HSV inoculation, placed in a tube containing 2.0 ml of media, vortexed and frozen at -70° C. until titrated for HSV-2. When all samples were collected, they were thawed, diluted serially and HSV-2 titers determined using rabbit kidney cells in a microtiter CPE assay.
as §14

protamine sulfate
blocking of anticoagulant effect of calix(n)arene (coagulation): effectively blocked

O=S(=O)(O)c1cc2c(O)c(c1)Cc1cc(S(=O)(=O)O)cc(c1O)Cc1cc(S(=O)(=O)O)cc(c1O)Cc1cc(S(=O)(=O)O)cc(c1O)Cc1cc(S(=O)(=O)O)cc(c1O)Cc1cc(S(=O)(=O)O)cc(c1O)Cc1cc(S(=O)(=O)O)cc(c1O)Cc1cc(S(=O)(=O)O)cc(c1O)C2 [Y-1]
IC50 (HSV-1 [1]; Human alphaherpesvirus 1, Vero, plaque reduction, Vero cells): 7 µg/mL (≈ 4.7 µM)
relative anti-HSV activity, in words (HSV-1 [1]; plaque reduction HSV-1 and HSV-2): somewhat more active than the corresponding n=4 and n=6 compounds
IC50 (HSV-2 [2]): 7.2 µg/mL (≈ 4.83 µM)
maximum decrease in viral yield, either drug alone (HSV-1 [3]): less than three
ocular disease, 12.5 μg/50 μl (HSV-1 [4]; 12.5 μg/50 μl topical): most effective ocular therapy
corneal epithelial HSV-1 induced disease, 18.75 μg/50 μl (HSV-1 [4]; 18.75 μg/50 μl topical): effective in reducing the development of corneal epithelial HSV-1induced disease
toxicity to corneal epithelial surface, conjunctiva, iris and stroma (HSV-1 [4]; 18.75 μg/50 μl, days 6 and 7): somewhat toxic to the corneal epithelial surface and to the conjunctiva, iris and stroma
ocular disease severity versus placebo (HSV-1 [4]; all concentrations, topical): effective in reducing the development of HSV-1 induced ocular disease
viral titer in epithelial scrapings (HSV-1 [4]; day 7): dose-dependent reduction in viral titer
relative activity against HXB strain, in words (HIV-HXB; HXB strain): comparable activities against the HXB strain
IC50 (HIV-HXB; Human immunodeficiency virus 1, read-out: HIV-HXB IC50): 16 µg/mL (≈ 10.7 µM)
ED90 concentration (HSV-1 and HSV-2): 12.5 μg/50 μl
lesions versus placebo, in words (HSV-2 [5]; 2% or 6%, 6 h treatment): reduced numbers of animals exhibiting lesions, decreased mean lesion scores and decreased peak lesion score
% Animals with Lesions (HSV-2 [5]; 2%, 6 h): 66.7%
Lesion Score (AUC) (HSV-2 [5]; 2%, 6 h): 16.9
Mean Peak lesion score (HSV-2 [5]; 2%, 6 h): 1.8
% Animals with Lesions (HSV-2 [5]; 2%, 24 h): 60%
Lesion Score (AUC) (HSV-2 [5]; 2%, 24 h): 22.0
Mean Peak lesion score (HSV-2 [5]; 2%, 24 h): 2.3
% Animals with Lesions (HSV-2 [5]; 6%, 6 h): 30%
Lesion Score (AUC) (HSV-2 [5]; 6%, 6 h): 8.1
Mean Peak lesion score (HSV-2 [5]; 6%, 6 h): 1.2
% Animals with Lesions (HSV-2 [5]; 6%, 24 h): 40%
Lesion Score (AUC) (HSV-2 [5]; 6%, 24 h): 14.7
Mean Peak lesion score (HSV-2 [5]; 6%, 24 h): 1.8
lesions, in words (HSV-2 [5]; 24 hours post-infection, 6% KY-1 or Y-1, 2% KY-1): reduced numbers of lesion bearing animals and reduced severity of lesions

Nc1nc2c(ncn2COCCO)c(=O)[nH]1 [ACV, acyclovir, reference compound]
maximum decrease in viral yield, either drug alone (HSV-1 [3]): less than three
IC90 (HSV-1 KOS): 14 µM
IC90 (HSV-2 333): ~10 µM
IC90 (HSV-1 KOS (PFA)'): 100 µM
IC90 (HSV-1 KOS(PMEA)'): 380 µM
IC90 (HSV-2 333 (DHPG)'): > 100 µM
Lesion score Area Under Curve (HSV-2 [6]; +6 h): 2.7
Mean Peak lesion score (HSV-2 [6]; +6 h): 0.6
Lesion score Area Under Curve (HSV-2 [6]; +48 h): 45.8
Mean Peak lesion score (HSV-2 [6]; +48 h): 3.8
% Animals with Lesions (HSV-2 [5]; 5%, 24 h): 37.5%
Lesion Score (AUC) (HSV-2 [5]; 5%, 24 h): 11.7
Mean Peak lesion score (HSV-2 [5]; 5%, 24 h): 1.5

From patent publication US5441983A, “Treatment of infection by enveloped virus with calix(N)arene compounds” (Genelabs Incorporated, priority 1992, dated 1995)
